Counter-ions that a name gives are not always drawn.
System: U937 cells adhered to HUVEC stimulated by TNFα
Experiment: Inhibitory effect on cell adhesion (U937 adhesion to TNFα-stimulated HUVEC)
Format: cell-based
Conditions: Homo sapiens, read-out: Inhibitory activity against cell adhesion, Percent inhibition (%); for inhibition at 1 µM: 1 μM test agent; for inhibition at 10 µM: 10 μM test agent
Experimental: (Inhibitory Effect on Cell Adhesion)
This test was conducted by reference to the method of Ross et al. (J. Biol. Chem., 267, 8537-8543 (1992)). More specifically, after human umbilical venous endothelial cells (HUVEC) were cultured on a 48-well plate to confluent growth, TNFα was added thereto. Upon elapsed time of 5 hours after the addition, U937, which is a human monocytic/histocytic cell fluorescence-labeled with PKH2 (product of Dainippon Pharmaceutical Co., Ltd.), was added in a proportion of 1×10^6 cells per well. After the plate was left at rest at room temperature for 1 hour, unadhered U937 was washed out and lysed in 1% Triton X-100 to measure a remaining fluorescence intensity (excitation wavelength: 480 nm; measuring wavelength: 530 nm). HUVEC and U937 were cultured in EGM-2 (product of Sanko Junyaku K.K.) and 10% FCS-containing RPMI1640, respectively. Each test agent was added to HUVEC upon the addition of TNFα and to U937 24 hours prior to the cell adhesion test. The inhibitory activity was calculated out according to the equation [100−(C−B)/(A−B)×100 (%)], wherein A is the number of U937 cells adhered to HUVEC stimulated by TNFα when no test agent was added, B is the number of U937 cells adhered to HUVEC not stimulated by TNFα when no test agent was added, and C is the number of U937 cells adhered to HUVEC stimulated by TNFα when the test agent was added. As control compounds, Test Compound 1 described in Japanese Patent Application Laid-Open No. 9-143075 and dilazep described in Japanese Patent Application Laid-Open No. 11-92382 were simultaneously evaluated.

Structure (SMILES)	inhibition at 1 µM	inhibition at 10 µM
COc1cc(-c2cc(CN3C[C@H](C)N(Cc4ccnc(-c5cc(OC)c(OC)c(OC)c5)c4)C[C@H]3C)ccn2)cc(OC)c1OC [Example 2, trans-N,N′-bis[[2-(3,4,5-trimethoxyphenyl)-pyridin-4-yl]methyl]-2,5-dimethylpiperazine tetrahydrochloride]	42%	64%
COc1cc(-c2cc(CN3CCN(Cc4ccnc(-c5cc(OC)c(OC)c(OC)c5)c4)[C@@H](Cc4ccccc4)C3=O)ccn2)cc(OC)c1OC [Example 9, (3S)-3-benzyl-2-oxo-N,N′-bis[[2-(3,4,5-trimethoxyphenyl)pyridin-4-yl]methyl]piperazine sesqui-hydrochloride]	38%	86%
COc1cc(-c2cc(CN3CCN(Cc4ccnc(-c5cc(OC)c(OC)c(OC)c5)c4)[C@@H](CC(C)C)C3=O)ccn2)cc(OC)c1OC [Example 8, (3S)-3-(2-methylpropyl)-2-oxo-N,N′-bis[[2-(3,4,5-trimethoxyphenyl)pyridin-4-yl]methyl]piperazine 2.5 hydrochloride]	63%	79%
COc1cc(-c2cc(CN3CCN(Cc4ccnc(-c5cc(OC)c(OC)c(OC)c5)c4)[C@@H](C)C3=O)ccn2)cc(OC)c1OC [Example 5, (3S)-3-methyl-2-oxo-N,N′-bis[[2-(3,4,5-trimethoxyphenyl)pyridin-4-yl]methyl]piperazine 2.5 hydrochloride]	51%	85%
COc1cc(-c2cc(CN3CCN(Cc4ccnc(-c5cc(OC)c(OC)c(OC)c5)c4)C(=O)C3)ccn2)cc(OC)c1OC [Example 4, 2-oxo-N,N′-bis[[2-(3,4,5-trimethoxyphenyl)-pyridin-4-yl]methyl]piperazine 2.5 hydrochloride]	60%	79%
COc1cc(C(=O)OCCCN2CCCN(CCCOC(=O)c3cc(OC)c(OC)c(OC)c3)CC2)cc(OC)c1OC [Dilazep, dilazep, reference compound]	12%	25%
COc1cc(-c2cc(CN3CCN(Cc4ccnc(-c5cc(OC)c(OC)c(OC)c5)c4)[C@@H](C(C)C)C3=O)ccn2)cc(OC)c1OC [Example 6, (3S)-3-isopropyl-2-oxo-N,N′-bis[[2-(3,4,5-trimethoxyphenyl)pyridin-4-yl]methyl]piperazine sesqui-hydrochloride]	63%	77%
COc1cc(-c2cc(CN3CCN(Cc4ccnc(-c5cc(OC)c(OC)c(OC)c5)c4)C(CO)C3)ccn2)cc(OC)c1OC (centres unmarked) [Example 3, N,N′-bis[[2-(3,4,5-trimethoxyphenyl)pyridin-4-yl]methyl]-2-hydroxymethylpiperazine dimaleate]	34%	90%
COc1cc(-c2cc(CN3C[C@@H](C)N(Cc4ccnc(-c5cc(OC)c(OC)c(OC)c5)c4)[C@@H](C)C3)ccn2)cc(OC)c1OC [Example 1, cis-N,N′-bis[[2-(3,4,5-trimethoxyphenyl)pyridin-4-yl]methyl]-2,6-dimethylpiperazine tetrahydrochloride]	76%	78%
COc1cc(-c2cc(CN3CCN(Cc4ccnc(-c5cc(OC)c(OC)c(OC)c5)c4)[C@H](C(C)C)C3=O)ccn2)cc(OC)c1OC [Example 7, (3R)-3-isopropyl-2-oxo-N,N′-bis[[2-(3,4,5-trimethoxyphenyl)pyridin-4-yl]methyl]piperazine tri-hydrochloride]	51%	70%

— patent US6432957B1, “Piperazine derivative” (Kowa Co., Ltd., priority 2001, dated 2002)
